Data: patent US20030054520A1, “Recombinant enzymes having improved NAD (H) affinity” (DEGUSSA AG, priority 2000, published 2003)

Each compound was assayed on G38D mutein (assay: Substrate spectrum: photometric reduction of keto substrates with NADH). Conditions: relative to acetophenone; 10 mM keto substrate, 0.4 mM NADH, pH 7.0, 30° C.
Type: biochemical
Procedure: It is known that the NADP(H)-dependent wild-type enzyme can reduce numerous ketones, keto esters and other carbonyl-groupcontaining compounds stereospecifically. Hereinafter, only a few selected keto compounds are tested as substrates, in order to confirm that the substrate-recognition region has not been changed in principle by the change of coenzyme binding site. For this purpose the keto compounds are tested in the following mixture (total volume of 1 ml).
10 mM keto substrate; 1 MM MgCl2.6H2O; 0.4 mM NADH; 960 μl of triethanolamine buffer, 50 mM, pH 7.0; 10 μl of enzyme (G38D mutein); partly purified (phenylsepharose; see above).
The activity is determined photometrically at 340 nm (30° C.). The following table summarizes the activity values.

SMILES | Activity, relative
CCCCCC(C)=O [2-Heptanone] | 207%
CCCCC(C)=O [2-Hexanone] | 169%
CC1CCCCC1=O (stereo not drawn) [2-Methylcyclohexanone] | 334%
CCOC(=O)C(=O)CC [2-Oxobutyric acid ethyl ester] | 137%
CCOC(=O)C(=O)C(C)C [3-Methyl-2-oxobutyric acid ethyl ester] | 84%
CCC(=O)CC(=O)OC [3-Oxovaleric acid methyl ester] | 127%
CCOC(=O)CC(=O)CCl [4-Chloroacetoacetic acid ethyl ester] | 228%
CC(=O)c1ccc(Cl)cc1 [4-chloroacetophenone] | 68%
CCOC(=O)CC(C)=O [Acetoacetic acid ethyl ester] | 88%
COC(=O)CC(C)=O [Acetoacetic acid methyl ester] | 188%
CC(=O)c1ccccc1 [Acetophenone] | 100%
CCOC(=O)C(=O)CCc1ccccc1 [Benzyl pyruvate ethyl ester] | 13%
COC(=O)C(=O)c1ccccc1 [Phenylglyoxylic acid methyl ester] | 10%
CCOC(=O)C(C)=O [Pyruvic acid ethyl ester] | 260%
COC(=O)C(C)=O [Pyruvic acid methyl ester] | 191%
